Our source for the inhibition and IC50 values is paper PMC4863635, “Radicicol-Mediated Inhibition of Topoisomerase VIB-VIA Activity of the Human Malaria Parasite Plasmodium falciparum” (mSphere, 2016).

For experiment [1], the target named is T1, PfTopoVIB (measured as PfTopoVIB-VIA complex) (Plasmodium falciparum, UniProt Q8I5N7+Q8ID53).
T1 construct: gene PF3D7_1365600; full-length Myc-tagged PfTopoVIB co-expressed with Flag-tagged PfTopoVIA in S. cerevisiae, cell-free extract; with PfTopoVIA (PF3D7_1217100.1)
The experiment in a line: kDNA decatenation gel assay with yeast cell extract expressing PfTopoVIB-VIA. The class given is biochemical.

In experiment [2] the target is T2, PfTopoVIB (topoisomerase VIB subunit of PfTopoVI) (Plasmodium falciparum, UniProt Q8ID53).
T2 construct: gene PF3D7_1365600; full-length Myc-tagged PfTopoVIB co-expressed with Flag-tagged PfTopoVIA in S. cerevisiae, cell-free extract; with PfTopoVIA (PF3D7_1217100.1)
T2 sequence (Q8ID53 1-561): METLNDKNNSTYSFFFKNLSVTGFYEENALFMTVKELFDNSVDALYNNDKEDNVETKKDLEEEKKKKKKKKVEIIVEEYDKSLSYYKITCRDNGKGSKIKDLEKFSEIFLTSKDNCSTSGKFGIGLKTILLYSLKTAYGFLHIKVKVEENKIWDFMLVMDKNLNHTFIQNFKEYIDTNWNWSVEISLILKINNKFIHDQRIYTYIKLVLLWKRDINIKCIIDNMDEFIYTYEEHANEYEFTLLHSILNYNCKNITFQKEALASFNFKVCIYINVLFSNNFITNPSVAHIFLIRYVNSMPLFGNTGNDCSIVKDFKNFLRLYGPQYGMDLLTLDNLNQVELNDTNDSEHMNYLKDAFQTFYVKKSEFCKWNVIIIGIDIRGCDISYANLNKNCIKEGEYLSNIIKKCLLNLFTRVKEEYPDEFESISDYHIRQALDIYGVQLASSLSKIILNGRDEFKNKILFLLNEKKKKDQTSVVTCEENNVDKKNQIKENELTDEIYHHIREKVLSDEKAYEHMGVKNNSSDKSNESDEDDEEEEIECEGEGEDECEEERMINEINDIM
T2 sequence (Q8I5N7 1-327 partner): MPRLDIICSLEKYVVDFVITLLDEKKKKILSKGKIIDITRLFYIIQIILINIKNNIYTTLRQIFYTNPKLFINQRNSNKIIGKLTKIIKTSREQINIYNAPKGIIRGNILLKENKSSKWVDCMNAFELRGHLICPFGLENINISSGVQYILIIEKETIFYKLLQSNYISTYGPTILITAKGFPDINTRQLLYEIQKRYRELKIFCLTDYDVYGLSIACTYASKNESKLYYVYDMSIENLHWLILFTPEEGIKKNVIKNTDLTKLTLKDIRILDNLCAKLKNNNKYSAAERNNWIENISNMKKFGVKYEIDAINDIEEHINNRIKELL
The description is as above. The class given is biochemical.

pIC50: −log10 of the molar value. Where only a bound is given, the exact number is not on record here.

On to `COc1cc([C@@H]2c3cc4c(cc3[C@@H](O[C@@H]3O[C@@H]5CO[C@@H](C)O[C@H]5[C@H](O)[C@H]3O)[C@H]3COC(=O)[C@H]23)OCO4)cc(OC)c1O` [etoposide], for which the inhibition at 10 µM in experiment [1] was more than 80%. Turning to `C[C@@H]1C[C@H]2O[C@@H]2/C=C\C=C\C(=O)Cc2c(Cl)c(O)cc(O)c2C(=O)O1` [radicicol], the pIC50 in experiment [2] was approximately 4.10.

Usually inhibition stands for how much of the control response was suppressed. What is called pIC50 is the IC50 on a negative log10 scale, so that one unit is a factor of ten. Higher therefore signals a small IC50.
